“And” between values parts separate entries of the source, which are not always exact repeats. Equal values may be shown once. Read-outs that look alike come from different tables or passages of the source.
How the values were obtained:
Conditions in all cases: agent alone
X. maltophila = test: organism not typed
Method: (§1) FICs are performed by checkerboard titrations of peptides in one dimension of a microtiter plate, and of antibiotics in the other dimension, for example. The FIC is calculated by looking at the impact of one antibiotic on the MIC of the other and vice versa. […] Preferably, an FIC of less than 0.5 is obtained for synergism. As used herein, FIC can be determined as follows: [formula]
(§2) Synergism is identified as an FIC of about ≦0.5.

P. aeruginosa = test: microbe, parasite or virus in culture
Method: as §1, §2

A. calcoaceticus = tested on: A. calcoaceticus
Method: as §1, §2

E. cloacae = tested on: E. cloacae
Method: as §1, §2

[1] = X. maltophila isolate 35, strain 6
[2] = X. maltophila isolate 36, strain 16
[3] = X. maltophila isolate 38, strain 7901
[4] = X. maltophila isolate 39, strain B3110.1
[5] = X. maltophila isolate 40, strain R1302-1
[6] = X. maltophila isolate 41, strain R4230
[7] = X. maltophila isolate 43, strain TF29-2
[8] = X. maltophila isolate 45, strain W11291
[9] = P. aeruginosa isolate 24, strain 34
[10] = P. aeruginosa isolate 27, strain 14644
[11] = P. aeruginosa isolate 28, strain 15036
[12] = P. aeruginosa isolate 30, strain B3999-1
[13] = A. calcoaceticus isolate 1, strain ATCC 23055
[14] = X. maltophila isolate 44, strain W6896-2
[15] = X. maltophila isolate 37, strain 3095
[16] = X. maltophila isolate 42, strain TF29-1
[17] = P. aeruginosa isolate 23, strain ATCC 27853
[18] = P. aeruginosa isolate 25, strain 923-1
[19] = P. aeruginosa isolate 26, strain 3101
[20] = P. aeruginosa isolate 32, strain W2897-1
[21] = E. cloacae isolate 14, strain 938-2
[22] = E. cloacae isolate 18, strain 3077
[23] = P. aeruginosa isolate 31, strain U7688-1

| SMILES | MIC (X. maltophila; [1]) | MIC (X. maltophila; [2]) | MIC (X. maltophila; [3]) | MIC (X. maltophila; [4]) | MIC (X. maltophila; [5]) | MIC (X. maltophila; [6]) | MIC (X. maltophila; [7]) | MIC (X. maltophila; [8]) | MIC (P. aeruginosa; [9]) | MIC (P. aeruginosa; [10]) | MIC (P. aeruginosa; [11]) | MIC (P. aeruginosa; [12]) | MIC (A. calcoaceticus; [13]) | MIC (X. maltophila; [14]) | MIC (X. maltophila; [15]) | MIC (X. maltophila; [16]) | MIC (P. aeruginosa; [17]) | MIC (P. aeruginosa; [18]) | MIC (P. aeruginosa; [19]) | MIC (E. cloacae; [21]) | further results |
| --- | --- | --- | --- | --- | --- | --- | --- | --- | --- | --- | --- | --- | --- | --- | --- | --- | --- | --- | --- | --- | --- |
| CC(C)(O/N=C(\C(=O)N[C@@H]1C(=O)N2C(C(=O)[O-])=C(C[n+]3ccccc3)CS[C@H]12)c1csc(N)n1)C(=O)O [Ceftazidime] | 32 µg/mL | 16 µg/mL | 256 µg/mL | 128 µg/mL | 32 µg/mL | 8 µg/mL | 2 µg/mL | 128 µg/mL and 256 µg/mL | 64 µg/mL | 256 µg/mL | 4 µg/mL | 8 µg/mL | 4 µg/mL |  |  |  |  |  |  |  | MIC (A. calcoaceticus; A. calcoaceticus isolate 5, strain 8220): 8 µg/mL |
| O=C(O)c1cn(C2CC2)c2cc(N3CCNCC3)c(F)cc2c1=O [Ciprofloxacin] |  |  |  |  |  |  |  |  |  |  | 32 µg/mL |  |  | 8 µg/mL |  |  |  |  |  |  |  |
| C[C@@H](O)[C@H]1C(=O)N2C(C(=O)O)=C(SCCN=CN)C[C@H]12 [Imipenem] | 512 µg/mL | 512 µg/mL | 512 µg/mL | 512 µg/mL | 512 µg/mL | 512 µg/mL | 512 µg/mL | 512 µg/mL |  | 8 µg/mL | 8 µg/mL | 128 µg/mL |  | 512 µg/mL | 512 µg/mL | 512 µg/mL | 4 µg/mL | 2 µg/mL | 4 µg/mL | 2 µg/mL | MIC (X. maltophila; X. maltophila isolate 34, strain ATCC 13637): 512 µg/mL; MIC (P. aeruginosa; P. aeruginosa isolate 29, strain 15545): 128 µg/mL; MIC (P. aeruginosa; [20]): 128 µg/mL; MIC (A. calcoaceticus; A. calcoaceticus isolate 3, strain 27): 512 µg/mL; MIC (A. calcoaceticus; A. calcoaceticus isolate 4, strain 28): 8 µg/mL; MIC (A. calcoaceticus; A. calcoaceticus isolate 7, strain 8222): 2 µg/mL; MIC (A. calcoaceticus; A. calcoaceticus isolate 11, strain 8226): 2 µg/mL; MIC (E. cloacae; E. cloacae isolate 12, strain ATCC 13047): 2 µg/mL; MIC (E. cloacae; [22]): 2 µg/mL; MIC (E. cloacae; E. cloacae isolate 19, strain 3356): 2 µg/mL; MIC (E. cloacae; E. cloacae isolate 20, strain 14269): 2 µg/mL |
| CCN1CCN(C(=O)N[C@@H](C(=O)N[C@@H]2C(=O)N3[C@@H]2SC(C)(C)[C@@H]3C(=O)O)c2ccccc2)C(=O)C1=O [Piperacillin] |  |  | 1024 µg/mL | 1024 µg/mL | 1024 µg/mL |  |  | 1024 µg/mL |  | 1024 µg/mL |  | 256 µg/mL |  |  | 1024 µg/mL |  | 128 µg/mL | 32 µg/mL | 128 µg/mL | 4 µg/mL | MIC (P. aeruginosa; [23]): 256 µg/mL; MIC (P. aeruginosa; [20]): 32 µg/mL; MIC (P. aeruginosa; Pseudomonas aeruginosa, P. aeruginosa isolate 23, strain ATCC 27853): 256 µg/mL; MIC (A. calcoaceticus; A. calcoaceticus isolate 9, strain 8224): 128 µg/mL; MIC (E. cloacae; [22]): 4 µg/mL; MIC (E. cloacae; E. cloacae isolate 21, strain 14661): 8 µg/mL |
| NC[C@H]1O[C@H](O[C@H]2[C@H](O)[C@@H](O[C@H]3O[C@H](CO)[C@@H](O)[C@H](N)[C@H]3O)[C@H](N)C[C@@H]2N)[C@H](N)C[C@@H]1O [Tobramycin] |  | 128 µg/mL |  | 16 µg/mL |  |  | 1 µg/mL |  | 128 µg/mL | 1 µg/mL |  | 1 µg/mL | 2 µg/mL | 8 µg/mL |  | 1 µg/mL |  |  |  | 1 µg/mL | MIC (P. aeruginosa; [23]): 2 µg/mL; MIC (P. aeruginosa; P. aeruginosa isolate 33, strain W5483-2): 2 µg/mL; MIC (E. cloacae; E. cloacae isolate 15, strain B5546): 1 µg/mL |

From patent US6906035B2, “Antimicrobial cationic peptides” (priority 1995, dated 2005)
